Measured values from patent US8258321B2, “Beta-lactone compounds” (Burnham Institute for Medical Research, priority 2007, dated 2012).
pIC50, pKi: −log10 of the molar value. Read-outs that look alike come from different tables or passages of the source.

Legend:
FAS TE = target: T1, FAS TE (Homo sapiens, UniProt P49327); assay: Fluorogenic Assay for Detection of FASTE Inhibition (4-MUH substrate); assay type: biochemical; details: 500 nM FAS TE, 30 min pre-incubation at 37° C.
T1 construct: The unique carboxyl terminal thioesterase domain of fatty acid synthase
T1 sequence (P49327 2207-2511 limits assumed): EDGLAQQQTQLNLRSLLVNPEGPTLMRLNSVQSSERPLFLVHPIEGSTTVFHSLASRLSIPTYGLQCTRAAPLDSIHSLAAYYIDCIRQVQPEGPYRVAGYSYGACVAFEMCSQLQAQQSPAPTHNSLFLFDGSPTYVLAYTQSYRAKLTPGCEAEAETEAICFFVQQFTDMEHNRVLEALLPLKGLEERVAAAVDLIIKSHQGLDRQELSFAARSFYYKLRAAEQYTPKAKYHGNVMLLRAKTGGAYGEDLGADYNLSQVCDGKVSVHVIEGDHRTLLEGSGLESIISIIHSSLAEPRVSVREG
Experimental: Fluorogenic Assay for Detection of FASTE Inhibition
The synthetic fluorogenic substrate, 4-methylumbelliferyl heptanoate (4-MUH), was purchased from Sigma (St. Louis, Mo.). The reaction mixture consisted of 500 nM FAS TE in buffer (100 mM Tris-HCl, 50 mM NaCl at pH 7.4) which was pre-incubated with 2.5 μL test compounds dissolved in DMSO at final concentrations of […] and/or 0.08-10 μM at 37° C. for 30 minutes. […] 4-MUH incubated without enzyme served as a background control. Results are the average of triplicate time points.

human fibroblast cells = assay: Cell Viability Assay (MTS), human fibroblast cells (HFF); assay type: cell-based; details: 48 h
Experimental: (§1) Cell Viability Assays for Determination of Test Compound Potencies
(§2) Plates were incubated for 2 h and absorbance was assayed at 490 nm. Background levels of formazan formation were measured in medium alone. IC50 values were derived from dose-response curves.

MB-MDA-231 cells = assay: Cell Viability Assay (MTS), MB-MDA-231; assay type: cell-based; details: 3 k 231, 48 h
Experimental: as §1, §2

[1] = Homo sapiens, Fibroblast, 3 k HFF, read-out: avg 3 k HFF IC50
[2] = Homo sapiens, Fibroblast, 50 k HFF, read-out: avg 50 k HFF IC50
[3] = 3 k HFF, read-out: avg 3 k HFF IC50
[4] = 50 k HFF, read-out: avg 50 k HFF IC50

SMILES | pKi (FAS TE) | pIC50 (human fibroblast cells; [1]) | pIC50 (human fibroblast cells; [2]) | pIC50 (MB-MDA-231 cells; 48 h) | pIC50 (human fibroblast cells; [3]) | pIC50 (human fibroblast cells; [4]) | pIC50 (MB-MDA-231 cells)
CCCCCC[C@@H]1C(=O)O[C@H]1C[C@@H](C)OC(=O)CNC=O | 7.05 | – | – | – | – | – | –
C=CCC[C@H](CC1OC(=O)[C@H]1CCCCCC)OC(=O)CNC=O (some centres unmarked) [listing 1 of 2 here] | – | < 4.00 | < 4.00 | < 4.00 | – | – | –
CCCCCC[C@@H]1C(=O)OC1C[C@@H](COS(=O)(=O)c1ccc(C)cc1)OC(=O)CNC=O (some centres unmarked) | – | < 4.00 | < 4.00 | < 4.00 | – | – | –
CCCCCCCCCCC[C@@H](C[C@@H]1OC(=O)[C@H]1CCCCCC)OC(=O)[C@H](CC(C)C)NC=O | – | < 4.00 | < 4.00 | 4.70 | – | – | –
CCCCCCC/C=C/CC[C@@H](C[C@@H]1OC(=O)[C@H]1CCCCCC)OC(=O)[C@H](Cc1ccccc1)NC=O | 6.82 | 4.60 | 4.44 | < 4.00 | – | – | –
CCCCCCCCCCC[C@@H](C[C@@H]1OC(=O)[C@H]1CCCCCC)OC(=O)CN(C)C [drawing 152] | – | – | – | – | 4.43 | 4.31 | 4.57
CCCCCCCCCCC[C@@H](C[C@@H]1OC(=O)[C@H]1CCCCCC)OC(=O)CNC=O | – | 4.70 | 4.56 | 5.32 | – | – | –
CCCCCC[C@@H]1C(=O)O[C@H]1C[C@@H](COS(=O)(=O)c1ccc(C)cc1)OC(=O)CNC=O | 7.00 | – | – | – | – | – | –
CCCCCCCCCCCCC[C@H](C[C@@H]1OC(=O)[C@@H]1CCCCCC)OC(=O)CNC=O | 7.40 | – | – | – | – | – | –
C=CCC[C@H](CC1OC(=O)[C@H]1CCCCCC)OC(=O)CNC=O (some centres unmarked) [listing 2 of 2 here] | 7.22 | – | – | – | < 4.00 | < 4.00 | 4.27
CCCCCCCCCCC[C@H](C[C@@H]1OC(=O)[C@H]1CCCCCC)OC(=O)CNC=O | – | 4.33 | 4.39 | 4.93 | – | – | –
CCCCCC[C@@H]1C(=O)OC1C[C@@H](C)OC(=O)CNC=O (some centres unmarked) | – | < 4.00 | < 4.00 | < 4.00 | – | – | –
C/C=C/CC[C@H](CC1OC(=O)[C@H]1CCCCCC)OC(=O)CNC=O (some centres unmarked) | – | 4.40 | 4.43 | 4.24 | – | – | –
CCCCCCCCCCC[C@@H](C[C@@H]1OC(=O)[C@H]1CCCCCC)OC(=O)c1ccccc1 [drawing 150] | – | – | – | – | < 4.00 | < 4.00 | < 4.00
C/C=C/CC[C@@H](C[C@@H]1OC(=O)[C@H]1CCCCCC)OC(=O)[C@@H](NC=O)C(C)C | – | 4.46 | 4.56 | 4.64 | – | – | –
C=CCC[C@H](C[C@@H]1OC(=O)[C@H]1CCCCCC)OC(=O)CNC=O | 6.28 | – | – | – | – | – | –

SMILES | pKi (FAS TE) | pIC50 (human fibroblast cells; [1]) | pIC50 (human fibroblast cells; [2]) | pIC50 (MB-MDA-231 cells; 48 h) | pIC50 (human fibroblast cells; [3]) | pIC50 (human fibroblast cells; [4]) | pIC50 (MB-MDA-231 cells)
C/C=C/CC[C@H](C[C@@H]1OC(=O)[C@H]1CCCCCC)OC(=O)[C@@H](NC=O)C(C)C | – | 3.99 | < 4.00 | – | – | – | –
CCCCCC[C@@H]1C(=O)O[C@H]1C[C@H](CCCCC)OC(=O)[C@@H](NC=O)C(C)C | – | – | < 4.00 | – | – | – | –
CCCCCCCCCCCCC[C@@H](CC1OC(=O)[C@H]1CCCCCC)OC(=O)[C@H](Cc1cnc[nH]1)NC=O (some centres unmarked) | 6.77 | 4.80 | 4.55 | 4.43 | – | – | –
CCCCCCCCCCC[C@H](C[C@@H]1OC(=O)[C@H]1CC)OC(=O)CNC=O | 6.64 | – | 5.01 | 5.89 | – | – | –
CCCCCCCCCCC[C@@H](C[C@@H]1OC(=O)[C@H]1CCCCCC)OC(=O)c1ccccc1 [drawing 169] | – | < 4.00 | < 4.00 | < 4.00 | – | – | –
CCCCCCCCCCC[C@@H](C[C@@H]1OC(=O)[C@H]1CC)OC(=O)CNC=O | 6.80 | – | – | – | – | – | –
CCCCCCCCCCC[C@@H](O)C[C@@H]1OC(=O)[C@H]1CCCCCC | 6.32 | 4.39 | 4.53 | 4.57 | – | – | –
CCCCCCC/C=C/CC[C@@H](C[C@@H]1OC(=O)[C@H]1CCCCCC)OC(=O)[C@H](CC(C)C)NC=O | – | 4.36 | 4.02 | 4.20 | – | – | –
CCCCCCCCCCC[C@@H](CC1OC(=O)[C@H]1CC)OC(=O)CNC=O (some centres unmarked) | – | < 4.00 | < 4.00 | 4.05 | – | – | –
C/C=C/CC[C@@H](C[C@@H]1OC(=O)[C@H]1CCCCCC)OC(=O)[C@H](Cc1ccccc1)NC=O | 6.64 | 4.21 | 4.28 | 4.42 | – | – | –
CCCCCC[C@@H]1C(=O)O[C@H]1C[C@H](CC/C=C/COCCOCCOCC(=O)OCc1ccccc1)OC(=O)[C@H](CC(C)C)NC=O | 6.64 | 4.15 | < 4.00 | 4.33 | – | – | –
C=CCC[C@@H](C[C@@H]1OC(=O)[C@H]1CCCCCC)OC(=O)[C@H](Cc1ccccc1)NC=O | 6.66 | 4.13 | 4.19 | 4.61 | – | – | –
CCCCCCCCCCC[C@H](CC1OC(=O)[C@H]1CCCC)OC(=O)CNC=O (some centres unmarked) | 6.80 | 4.51 | 4.36 | 4.45 | – | – | –
CCCCCCCCCCCCC[C@H](CC1OC(=O)[C@@H]1CCCCCC)OC(=O)CNC=O (some centres unmarked) | – | < 4.00 | < 4.00 | < 4.00 | – | – | –
CCCCCC[C@@H]1C(=O)O[C@H]1C[C@H](CC/C=C/c1ccc(F)cc1)OC(=O)[C@H](CC(C)C)NC=O | 6.82 | 4.48 | 4.30 | 4.85 | – | – | –
CCCCCCCCCCC[C@@H](CC1OC(=O)[C@H]1CCCCCC)OC(=O)CN(C)C (some centres unmarked) [drawing 171] | – | – | 4.12 | 4.28 | 3.98 | – | –
